Drawing on patent publication US20060002994A1, “Responsive liposomes for ultrasonic drug delivery” (priority 2004, published 2006), this text covers CMC and K (estimated partition coefficient) for three substances.

Data set [1] in a line: Critical micelle concentrations (CMC) of detergents. Type of data set: physicochemical. Particulars: source not stated. An excerpt: RESULTS: Some ethylene glycol-containing surfactants can cause enhanced release of a self-quenching fluorescent marker dye from liposomes under 20 kHz ultrasound stimulation.[19] In FIG. 4, the rate of fluorescence increase caused by release of liposomally-entrapped calcein dye is shown in liposomes treated with five different surfactants. The total surfactant concentrations were normalized to the CMCs (Table 1, below). CMCs for TRITON® X-100, TRITON® X-405, PLURONIC® P-105 [20] and TWEEN® 80 were obtained from the literature. All surfactants, except DPPE-PEG2000, were dissolved in the buffer prior to the introduction of the liposomes. DPPE-PEG2000 was incorporated into the liposomes prior to extrusion. For all surfactants except TRITON® X-100, the rate of fluorescence increase in the absence of ultrasound was <0.04% per second, i.e., off the bottom of the figure. (At the higher TRITON® X-100 concentrations, the spontaneous leakage was >0.11% per second.) All of the surfactants induced about a 10-15 fold increase in the response to 20 kHz ultrasound. More remarkably, the surfactants reached maximal effectiveness at concentrations of about 1% of the critical micelle concentration. […] Furthermore, the different surfactants plateau at different levels. […]

Data set [2] in a line: Estimated partition coefficients (K) of detergents into the lipid membrane. Format: physicochemical. Particulars: estimated as inverse of CMC; P-105 at 37° C. An excerpt: Critical micelle concentrations (CMC) and estimated partition coefficients (K) of several detergents assayed. For membrane-solubilizing detergents, the product of the CMC and the partition coefficient is of order unity.

For data set [3] the following is noted: obtained from the literature; P-105 at 37° C.; cited from earlier work.

Like-named read-outs stand apart in the source and are kept apart here.

“1,2-dipalmitoyl-sn-glycero-3-phosphoethanolamine-N-methoxy(polyethylene glycol)2000 [DPPE-PEG2000, reference compound]” displayed a CMC in data set [1] of 70 µM. The K (estimated partition coefficient) in data set [2] was 14300 M⁻¹.

The substance TWEEN ® 20 had a CMC in data set [1] of 80 µM. Further, in data set [2], the K (estimated partition coefficient) was 12500 M⁻¹.

In the case of TWEEN ® 80, in data set [2], the K (estimated partition coefficient) is 10000 M⁻¹. Further, in data set [3], the CMC was 100 µM.
